Source: US8044198B2, “Sirtuin modulating compounds” (Sirtris Pharmaceuticals, Inc., priority 2005, dated 2011)
Each block holds one compound with its values, some of them ahead of it.

Assays:
[1] = target: T1, SIRT1 (Homo sapiens, UniProt Q96EB6); assay: SIRT1 fluorescence polarization (FP) deacetylation assay with p53-based peptide substrates; format: biochemical; conditions: for IC50: Sirt1 Inhibitors; for EC50: SIRT1 activation, read-out: ED50 FP ASSAY
T1 sequence (Q96EB6 1-747): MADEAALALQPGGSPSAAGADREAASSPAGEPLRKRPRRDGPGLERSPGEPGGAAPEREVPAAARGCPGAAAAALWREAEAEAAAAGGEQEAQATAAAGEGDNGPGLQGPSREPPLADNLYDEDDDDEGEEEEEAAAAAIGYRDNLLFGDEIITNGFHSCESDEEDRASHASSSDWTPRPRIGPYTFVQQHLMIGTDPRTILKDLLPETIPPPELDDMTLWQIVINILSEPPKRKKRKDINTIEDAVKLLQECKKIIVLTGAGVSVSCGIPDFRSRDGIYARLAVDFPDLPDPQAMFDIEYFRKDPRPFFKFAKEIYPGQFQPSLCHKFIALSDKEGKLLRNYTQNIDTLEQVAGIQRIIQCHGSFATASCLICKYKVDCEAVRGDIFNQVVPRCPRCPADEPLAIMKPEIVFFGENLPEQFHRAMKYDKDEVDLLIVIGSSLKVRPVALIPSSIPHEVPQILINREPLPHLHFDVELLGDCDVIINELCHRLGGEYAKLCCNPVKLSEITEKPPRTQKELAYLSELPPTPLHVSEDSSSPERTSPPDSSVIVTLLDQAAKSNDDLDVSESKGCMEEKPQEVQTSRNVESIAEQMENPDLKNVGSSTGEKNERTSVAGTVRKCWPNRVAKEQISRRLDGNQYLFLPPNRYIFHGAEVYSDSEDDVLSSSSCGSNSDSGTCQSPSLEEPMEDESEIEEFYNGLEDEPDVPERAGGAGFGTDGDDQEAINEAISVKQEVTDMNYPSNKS
Description: A fluorescence polarization or mass spectrometry based assay was used to identify modulators of SIRT1 activity. The same assay may be used to identify modulators of any sirtuin protein. The fluorescence polarization assays utilizes one of two different peptides based on a fragment of p53, a known sirtuin deacetylation target. Compounds 1-18 were tested using a substrate containing peptide 1 having 14 amino acid residues as follows: […](Ac)NleSTEG (SEQ ID NO: 1) wherein K(Ac) is an acetylated lysine residue and Nle is a norleucine. The peptide is labeled with the fluorophore MR121 (excitation 635 nm/emission 680 nm) at the C-terminus and biotin at the N-terminus. The sequence of the peptide substrate is based on p53 with several modifications. In particular, all arginine and leucine residues other than the acetylated lysine have replaced with serine so that the peptide is not susceptible to trypsin cleavage in the absence of deacetylation. In addition, the methionine residue naturally present in the sequence has been replaced with the norleucine because the methionine may be susceptible to oxidation during synthesis and purification. […] This peptide is labeled with the fluorophore MR121 (excitation 635 nm/emission 680 nm) at the C-termini and biotin at the N-termini. The sequence of the peptide substrates are based on p53 with several modifications. In particular, all arginine and leucine residues other than the acetylated lysine residues have replaced with serine so that the peptides are not susceptible to trypsin cleavage in the absence of deacetylation. In addition, the methionine residues naturally present in the sequences have been replaced with the norleucine because the methionine may be susceptible to oxidation during synthesis and purification. […] The peptide is labeled with the fluorophore 5TMR (excitation 540 nm/emission 580 nm) at the C-terminus. The sequence of the peptide substrate is also based on p53 with several modifications. In addition, the methionine residue naturally present in the sequence was replaced with the norleucine because the methionine may be susceptible to oxidation during synthesis and purification.
The peptide substrates were exposed to a sirtuin protein in the presence of NAD^+ to allow deacetylation of the substrate and render it sensitive to cleavage by trypsin. Trypsin was then added and the reaction was carried to completion (i.e., the deacetylated substrate is cleaved) releasing the MR121 or 5TMR fragment. Streptavidin is then added to the reaction where it can bind both the uncleaved substrate (i.e., any remaining acetylated substrate) and the non-fluorescent portion of the cleaved peptide substrate (i.e., the biotin containing fragment). The fluorescence polarization signal observed for the full length peptide substrates bound to streptavidin was higher than the fluorescence polarization signal observed for the released MR121 or 5TMR C-terminal fragment. In this way, the fluorescence polarization obtained is inversely proportional to the level of deacetylation (e.g., the signal is inversely proportional to the activity of the sirtuin protein). Results were read on a microplate fluorescence polarization reader (Molecular Devices Spectramax MD) with appropriate excitation and emission filters.
The fluorescence polarization assays using peptide 1 was conducted as follows: 0.5 μM peptide substrate and 150 μM βNAD^+ is incubated with 0.1 μg/mL of SIRT1 for 60 minutes at 37° C. in a reaction buffer (25 mM Tris-acetate pH8, 137 mM Na—Ac, 2.7 mM K—Ac, 1 mM Mg—Ac, 0.05% Tween-20, 0.1% Pluronic F127, 10 mM CaCl2, 5 mM DTT, 0.025% BSA, 0.15 mM Nicotinamide). Test compounds 1-18 were solubilized in DMSO and added to the reaction at 11 concentrations ranging from 0.7 μM to 100 μM. […]

[2] = target: T1, SIRT1; assay: SIRT1 mass spectrometry (MS) based deacetylation assay; format: biochemical; conditions: for EC50: SIRT1 activation, mass spectrometry assay, read-out: ED50 MS ASSAY; for FOLD ACT. MS: fold activation of SIRT1 as determined by MS
[3] = test system: NCI-H358 cells; assay: Cellular ATP Assay (ATPLite 1Step normalized to AlamarBlue viability); format: cell-based; conditions: Homo sapiens, compounds that raised intracellular ATP levels, read-out: ED50 ATP ASSAY
Description: Cellular ATP levels are an indirect measurement of cellular metabolic rates and, by extension, mitochondrial function. […] The ATP assay is combined with a cellular viability assay so that cellular ATP levels can be normalized to viable cells. Cellular ATP levels were measured using the ATPLite 1Step Kit (PerkinElmer) and cellular viability was measured using the cell permeable dye, AlamarBlue™.
The Cellular ATP Assay is a multiplexed assay that measures both ATP levels and viability of a given cell sample. This assay is run in a 96-well Assay Plate and data are reported as the [ATP]/viability for each well in the Assay Plate.
The ATPLite 1 Step™ Kit is a single-step luminescent cell-based assay for detection of ATP. The kit contains lyophilized substrate mixture, comprised of D-luciferin and the firefly (Photinus pyralis) enzyme luciferase. Additionally, the kit contains a detergent-based reconstitution buffer that induces the lysis of cellular membranes. The luciferase in the assay mixture catalyzes a reaction between the free cellular ATP and D-luciferin to produce bioluminescence according to the schematic reaction outlined below. The amount of light produced is proportional to the cellular ATP concentration.
The AlamarBlue™ Assay is a single-step assay that utilizes a soluble, non-toxic, cell permeable dye that is added to cell growth media. This dye undergoes electron reduction in viable cells but not dead cells. The reduced dye product gives a fluorescent signal which can be monitored with a fluorescence plate reader (excitation 545 nm and emission 575 nm). The amount of fluorescence generated in a given well is proportional to the number of viable cells. The viability signal generated by this assay is used to normalize the ATP signal from the ATPLite 1Step™ assay results.
The material was dissolved in 100% vehicle (DMSO) to yield a final concentration of 10 mM (stock solution). The stock solution was serially diluted with 100% DMSO as described in SOP 7.10.
In this assay NCI-H358 cells (obtained from the American Tissue Culture Collection, ATCC) were seeded in 96 well microplates (10^4 cells/well). The NCI-H358 Growth Culture Media consists of RPMI 1640 Media supplemented with 10% FBS, […] streptomycin, and 100 units/mL penicillin. […] After 48 hours of compound treatment under cell growth conditions, plates were removed from incubator, and 15 μl of AlamarBlue™ dye was added to each well. Cell microplates were incubated with dye for 2 hours under growth conditions, and fluorescence was subsequently measured using a plate reader. Media containing AlamarBlue™ was removed, and plates were washed in 100 μl of PBS per well. This wash was removed, and 200 μl of 1×ATPLite 1Step reagent was added to each well. Luminescence was then measured using a plate reader. The ATP signal for each well, measured by the luminescence scan, was normalized to its corresponding cell viability value, measured by the fluorescence scan, to generate the average ATP level per viable cell unit (ATP/vCell). The ATP/vCell for each treatment was then normalized to the average vehicle ATP/vCell for its respective cell microplate, yielding the normalized ATP/vCell (norm. ATP/vCell). Finally, the norm. ATP/vCell for each unique treatment was averaged across plate replicates, generating the average norm. ATP/vCell.
Each of these ATP levels was normalized to the cell viability in the corresponding treatment well, generating the ATP/vCell value. Each ATP/vCell value was subsequently normalized to its average Vehicle ATP/vCell values for its respective cell microplate.
Data are represented as the normalized ATP/vCell (arbitrary units). […] These values represent an average of three plate replicates.
A number of compounds were screened for their affect on ATP levels in the assay as described in Example 5. […] NA means that the compound was not tested using the indicated assay.

SMILES: COc1ccc(C(=O)Nc2ccc(-c3nc4ncccc4o3)cc2)c(OC)c1OC [Compound 34]
EC50 [1]: > 150 µM
EC50 [2]: > 150 µM

SMILES: COc1cccc(C(=O)Nc2ccc(-c3nc4ncccc4o3)cc2)c1C [Compound 31]
EC50 [1]: > 150 µM
EC50 [2]: > 150 µM

SMILES: COc1cc(C)ccc1C(=O)Nc1cccc(-c2nc3ncccc3o2)c1 [Compound 51]
EC50 [1]: 5 to 50 µM
EC50 [2]: 5 to 50 µM
FOLD ACT. MS [2]: B (B (Fold Activation <250%))

SMILES: CN(C)c1cccc(C(=O)Nc2cccc(-c3nc4ncccc4o3)c2)c1 [Compound 42]
EC50 [1]: 5 to 50 µM
EC50 [2]: 5 to 50 µM
FOLD ACT. MS [2]: B (B (Fold Activation <250%))
EC50 [3]: < 50 µM

SMILES: COc1ccc(C(=O)Nc2ccc(-c3nc4ncccc4o3)cc2)c(OC)c1 [Compound 36]
EC50 [1]: > 150 µM
EC50 [2]: > 150 µM

SMILES: COc1cccc(OC)c1C(=O)Nc1ccc(-c2nc3ncccc3o2)cc1 [Compound 27]
EC50 [1]: > 150 µM
EC50 [2]: > 150 µM

SMILES: Cc1cc(SCc2sc(-c3ccc(C(F)(F)F)cc3)nc2C)ccc1OCC(=O)O [Compound 291]
IC50 [1]: 51 to 100 µM

SMILES: COc1ccc(C(=O)Nc2cccc(-c3nc4ncccc4o3)c2)c(OC)c1 [Compound 55]
EC50 [1]: 5 to 50 µM
EC50 [2]: 5 to 50 µM
FOLD ACT. MS [2]: B (B (Fold Activation <250%))

SMILES: Cc1ccc(C)n1-c1cccc(C(=O)Nc2ccc(-c3nc4ncccc4o3)cc2)c1 [Compound 19]
EC50 [1]: > 150 µM
EC50 [2]: > 150 µM

SMILES: CN(C)c1ccc(C(=O)Nc2cccc(-c3nc4ncccc4o3)c2)cc1 [Compound 43]
EC50 [1]: 5 to 50 µM
EC50 [2]: 5 to 50 µM
FOLD ACT. MS [2]: B (B (Fold Activation <250%))

SMILES: COc1ccc(C(=O)Nc2ccc(-c3nc4ncccc4o3)cc2)cc1C(F)(F)F [Compound 22]
EC50 [1]: > 150 µM
EC50 [2]: > 150 µM

SMILES: COc1ccc(C(=O)Nc2cccc(-c3nc4ncccc4o3)c2)cc1OC [Compound 52]
EC50 [1]: 5 to 50 µM
EC50 [2]: 5 to 50 µM
FOLD ACT. MS [2]: B (B (Fold Activation <250%))
EC50 [3]: < 50 µM

SMILES: O=C(Nc1ccc(-c2nc3ncccc3o2)cc1)c1ccccc1N1CCOCC1 [Compound 28]
IC50 [1]: > 150 µM

Results, then the compound that gave them:

IC50 [1]: > 150 µM
SMILES: CN(C)c1cccc(C(=O)Nc2ccc(-c3nc4ncccc4o3)cc2)c1 [Compound 23]

IC50 [1]: 51 to 100 µM
SMILES: N#Cc1cccc(C(=O)Nc2ccc(-c3nc4ncccc4o3)cc2)c1 [Compound 25]

IC50 [1]: 51 to 100 µM
SMILES: N#Cc1ccc(C(=O)Nc2ccc(-c3nc4ncccc4o3)cc2)cc1 [Compound 26]

IC50 [1]: > 150 µM
SMILES: COc1ccc(C(=O)Nc2ccc(-c3nc4ncccc4o3)cc2)cc1Cl [Compound 30]

EC50 [1]: > 150 µM
EC50 [2]: > 150 µM
SMILES: COc1ccc(C(=O)Nc2ccc(-c3nc4ncccc4o3)cc2)cc1 [Compound 35]

EC50 [1]: > 150 µM
EC50 [2]: > 150 µM
SMILES: O=C(Nc1ccc(-c2nc3ncccc3o2)cc1)c1ccc(N2CCCCC2)cc1 [Compound 21]

EC50 [1]: > 150 µM
EC50 [2]: > 150 µM
SMILES: O=C(Nc1ccc(-c2nc3ncccc3o2)cc1)c1ccc(N2CCCC2)cc1 [Compound 29]

EC50 [1]: > 150 µM
EC50 [2]: > 150 µM
SMILES: O=C(Nc1ccc(-c2nc3ncccc3o2)cc1)c1ccccc1 [Compound 37]

EC50 [1]: > 150 µM
EC50 [2]: > 150 µM
SMILES: COc1ccc(C(=O)Nc2ccc(-c3nc4ncccc4o3)cc2)cc1OC [Compound 33]

EC50 [1]: > 150 µM
EC50 [2]: > 150 µM
SMILES: O=C(Nc1ccc(-c2nc3ncccc3o2)cc1)c1cccc(OC(F)(F)F)c1 [Compound 32]

EC50 [1]: > 150 µM
EC50 [2]: > 150 µM
SMILES: O=C(Nc1ccc(-c2nc3ncccc3o2)cc1)c1ccc(N2CCOCC2)cc1 [Compound 20]

EC50 [1]: > 150 µM
EC50 [2]: > 150 µM
SMILES: CN(C)c1ccc(C(=O)Nc2ccc(-c3nc4ncccc4o3)cc2)cc1 [Compound 24]
